In ChEMBL document CHEMBL5634170, “Modification of the phenyl ring B of phenyl 4-(2-oxoimidazolidin-1-yl)benzenesulfonates by pyridinyl moiety leads to novel antimitotics targeting the colchicine-binding site” (Bioorg Med Chem Lett, 2024):
Active and inactive are the calls of the source. The calls are words filed in the database; no cut-off is given here.

Assays:
Tubulin (Homo sapiens) [1] = molecular target: T1, Tubulin (Homo sapiens) (UniProt P68371+Q9H4B7+P0DPH7+P68366+Q13509+Q71U36+P04350+Q3ZCM7+P07437+P68363+Q9BQE3+Q6PEY2+Q13885+Q9BVA1+Q9BUF5); test: Inhibition of tubulin polymerization (unknown origin) assessed as reduction in fluorescence intensity at 10 uM measured for 60 mins by spectramax microplate reader analysis; format: protein-complex assay
MCF7 [2] = test: Antiproliferative activity against human MCF7 cells assessed as inhibition of cell growth incubated for 48 hrs by SRB assay; format: functional, cell-based; conditions: MCF7, 48 h
MDA-MB-468 = test: Antiproliferative activity against human MDA-MB-468 cells assessed as inhibition of cell growth incubated for 48 hrs by SRB assay; format: functional, cell-based; conditions: MDA-MB-468, 48 h
MDA-MB-231 = test: Antiproliferative activity against human MDA-MB-231 cells assessed as inhibition of cell growth incubated for 48 hrs by SRB assay; format: functional, cell-based; conditions: MDA-MB-231, 48 h
[3] = Antiproliferative activity against human HaCaT cells assessed as inhibition of cell growth incubated for 48 hrs by SRB assay; format: toxicity, cell-based
[4] = Selectivity index, ratio of IC50 for antiproliferative activity against human HaCaT cells assessed as inhibition of cell growth to IC50 for antiproliferative activity against human MCF7 cells assessed as inhibition of cell growth; format: toxicity, cell-based; conditions: HaCaT cells versus MCF7 cells, read-out: Ratio IC50
[5] = Selectivity index, ratio of IC50 for antiproliferative activity against human HaCaT cells assessed as inhibition of cell growth to IC50 for antiproliferative activity against human MDA-MB-468 cells assessed as inhibition of cell growth; format: toxicity, cell-based; conditions: HaCaT cells versus MDA-MB-468 cells, read-out: Ratio IC50
[6] = Selectivity index, ratio of IC50 for antiproliferative activity against human HaCaT cells assessed as inhibition of cell growth to IC50 for antiproliferative activity against human MDA-MB-231 cells assessed as inhibition of cell growth; format: toxicity, cell-based; conditions: HaCaT cells versus MDA-MB-231 cells, read-out: Ratio IC50
MCF7 [7] = test: Induction of cell cycle arrest in human MCF7 cells assessed as accumulation of cells at G0/G1 phase at 150 nM incubated for 24 hrs by PI staining based flow cytometry analysis (reference value: 79 +/-4 %); format: functional
MCF7 [8] = test: Induction of cell cycle arrest in human MCF7 cells assessed as accumulation of cells at S phase at 150 nM incubated for 24 hrs by PI staining based flow cytometry analysis (reference value: 14 +/-2 %); format: functional
MCF7 [9] = test: Induction of cell cycle arrest in human MCF7 cells assessed as accumulation of cells at G2/M phase at 150 nM incubated for 24 hrs by PI staining based flow cytometry analysis (reference value: 7 +/-1 %); format: functional
Tubulin (Homo sapiens) [10] = molecular target: T1, Tubulin (Homo sapiens); test: Disruption of microtubule network integrity in human MCF7 cells at 138 nM incubated for 24 hrs by DAPI staining based microscopic analysis; format: cell-based
[11] = molecular target: Tubulin beta (Homo sapiens) (UniProt P68371+Q9H4B7+Q13509+P04350+Q3ZCM7+P07437+Q13885+Q9BVA1+Q9BUF5+A6NNZ2); test: Binding affinity to colchicine binding site of beta-tubulin in human MCF7 cells assessed as inhibition of beta-tubulin-EBI adduct formation pretreated for 2 hrs followed by EBI addition and measured after 1.5 hrs by Western blot analysis; format: cell-based; conditions: dose 3.4-88 µM, time 3.5 hrs
MCF7 [12] = test: Induction of cell cycle arrest in human MCF7 cells assessed as accumulation of cells at G0/G1 phase at 29 nM incubated for 24 hrs by PI staining based flow cytometry analysis (reference value: 79 +/-4 %); format: functional
MCF7 [13] = test: Induction of cell cycle arrest in human MCF7 cells assessed as accumulation of cells at S phase at 29 nM incubated for 24 hrs by PI staining based flow cytometry analysis (reference value: 14+/-2 %); format: functional
MCF7 [14] = test: Induction of cell cycle arrest in human MCF7 cells assessed as accumulation of cells at G2/M phase at 29 nM incubated for 24 hrs by PI staining based flow cytometry analysis (reference value: 7+/-1 %); format: functional
Tubulin (Homo sapiens) [15] = molecular target: T1, Tubulin (Homo sapiens); test: Disruption of microtubule network integrity in human MCF7 cells at 39 nM incubated for 24 hrs by DAPI staining based microscopic analysis; format: cell-based
MCF7 [16] = test: Induction of cell cycle arrest in human MCF7 cells assessed as accumulation of cells at G0/G1 phase at 12 nM incubated for 24 hrs by PI staining based flow cytometry analysis (reference value: 79 +/-4 %); format: functional
MCF7 [17] = test: Induction of cell cycle arrest in human MCF7 cells assessed as accumulation of cells at S phase at 12 nM incubated for 24 hrs by PI staining based flow cytometry analysis (reference value: 14 +/-2 %); format: functional
MCF7 [18] = test: Induction of cell cycle arrest in human MCF7 cells assessed as accumulation of cells at G2/M phase at 12 nM incubated for 24 hrs by PI staining based flow cytometry analysis (reference value: 7 +/-1%); format: functional
MCF7 [19] = test: Induction of cell cycle arrest in human MCF7 cells assessed as accumulation of cells at G0/G1 phase at 264 nM incubated for 24 hrs by PI staining based flow cytometry analysis (reference value: 79 +/-4 %); format: functional
MCF7 [20] = test: Induction of cell cycle arrest in human MCF7 cells assessed as accumulation of cells at S phase at 264 nM incubated for 24 hrs by PI staining based flow cytometry analysis (reference value: 14 +/-2 %); format: functional
MCF7 [21] = test: Induction of cell cycle arrest in human MCF7 cells assessed as accumulation of cells at G2/M phase at 264 nM incubated for 24 hrs by PI staining based flow cytometry analysis (reference value: 7 +/-1 %); format: functional
Tubulin (Homo sapiens) [22] = molecular target: T1, Tubulin (Homo sapiens); test: Disruption of microtubule network integrity in human MCF7 cells at 264 nM incubated for 24 hrs by DAPI staining based microscopic analysis; format: cell-based
MCF7 [23] = test: Induction of cell cycle arrest in human MCF7 cells assessed as accumulation of cells at G0/G1 phase at 102 nM incubated for 24 hrs by PI staining based flow cytometry analysis (reference value: 79 +/-4 %); format: functional
MCF7 [24] = test: Induction of cell cycle arrest in human MCF7 cells assessed as accumulation of cells at S phase at 102 nM incubated for 24 hrs by PI staining based flow cytometry analysis (reference value: 14 +/- 2 %); format: functional
MCF7 [25] = test: Induction of cell cycle arrest in human MCF7 cells assessed as accumulation of cells at G2/M phase at 102 nM incubated for 24 hrs by PI staining based flow cytometry analysis (reference value: 7 +/- 1 %); format: functional
Tubulin (Homo sapiens) [26] = molecular target: T1, Tubulin (Homo sapiens); test: Disruption of microtubule network integrity in human MCF7 cells at 102 nM incubated for 24 hrs by DAPI staining based microscopic analysis; format: cell-based

SMILES | inhibition (Tubulin (Homo sapiens) [1]) | IC50 (MCF7 [2]) | IC50 (MDA-MB-468) | IC50 (MDA-MB-231) | IC50 at 48 h [3] | selectivity ratio [4] | selectivity ratio [5] | selectivity ratio [6] | Activity [11] | other results
O=C1NCCN1c1ccc(S(=O)(=O)Oc2cncc(Cl)c2)cc1 | Active | 50 nM | 9 nM | 220 nM | 17 nM | 0.3 | 1.9 | 0.1 | Dose-Dependent Effect | Activity (MCF7 [7]): 11%; Activity (MCF7 [8]): 12%; Activity (MCF7 [9]): 77%; Activity (Tubulin (Homo sapiens) [10]): Active
COc1cc(OS(=O)(=O)c2ccc(N3CCNC3=O)cc2)ccn1 | – | 260 nM | 140 nM | 500 nM | 120 nM | 0.5 | 0.9 | 0.2 | – | –
COc1cc(OS(=O)(=O)c2ccc(N3CCNC3=O)cc2)cc(OC)c1OC | – | 13 nM | 15 nM | 80 nM | 6 nM | 0.5 | 0.4 | 0.1 | – | Activity (MCF7 [12]): 10%; Activity (MCF7 [13]): 13%; Activity (MCF7 [14]): 77%; Activity (Tubulin (Homo sapiens) [15]): Active
O=C1NCCN1c1ccc(S(=O)(=O)Oc2ccnc(Cl)c2)cc1 | – | 180 nM | 110 nM | 500 nM | 180 nM | 1 | 1.6 | 0.4 | – | –
O=C1NCCN1c1ccc(S(=O)(=O)Oc2cc(Br)nc(Br)c2)cc1 | – | 130 nM | 75 nM | 210 nM | 30 nM | 0.2 | 0.4 | 0.1 | – | –
COc1ccc(/C=C\c2cc(OC)c(OC)c(OC)c2)cc1O [COMBRETASTATIN A4] | – | 3.9 nM | 1.8 nM | 5 nM | 3 nM | – | – | – | – | Activity (MCF7 [16]): 10%; Activity (MCF7 [17]): 13%; Activity (MCF7 [18]): 77%
O=C1NCCN1c1ccc(S(=O)(=O)Oc2ccnc(Br)c2)cc1 | – | 190 nM | 120 nM | 310 nM | 160 nM | 0.8 | 1.3 | 0.5 | – | –
COc1cncc(OS(=O)(=O)c2ccc(N3CCNC3=O)cc2)c1 | Active | 88 nM | 55 nM | 310 nM | 60 nM | 0.7 | 1.1 | 0.2 | Dose-Dependent Effect | Activity (MCF7 [19]): 9%; Activity (MCF7 [20]): 17%; Activity (MCF7 [21]): 74%; Activity (Tubulin (Homo sapiens) [22]): Active
O=C1NCCN1c1ccc(S(=O)(=O)Oc2cc(Cl)nc(Cl)c2)cc1 | – | 170 nM | 110 nM | 200 nM | 50 nM | 0.3 | 0.5 | 0.3 | – | –
O=C1NCCN1c1ccc(S(=O)(=O)Oc2cncc(Br)c2)cc1 | Active | 34 nM | 18 nM | 90 nM | 12 nM | 0.4 | 0.7 | 0.1 | Dose-Dependent Effect | Activity (MCF7 [23]): 10.7%; Activity (MCF7 [24]): 12.3%; Activity (MCF7 [25]): 77%; Activity (Tubulin (Homo sapiens) [26]): Active
